Test results published in patent publication US10792280B2, “Pharmaceutical composition comprising amodiaquine and anti-diabetes drug as effective ingredient for prevention or treatment of diabetes” (NOVMETAPHARMA CO., LTD., priority 2016, dated 2020).
Each block holds one molecule with its values, some of them ahead of it.

Key:
[1] = test system: high fat-induced obesity mice; test: Intraperitoneal insulin tolerance test (IPITT) in high fat-induced obesity mice; format: in vivo, mouse; conditions: for blood glucose concentration after 2 hours vs fasting blood glucose (IPITT): HFD with simultaneous administration, 0.5 U/kg insulin i.p., FIG. 7B; for time of lowest blood glucose level after insulin (IPITT): administration after long-term HFD-induced obesity, FIG. 7C
Source text: For measurement of the blood glucose concentration, an intraperitoneal insulin tolerance test (IPITT) was used.

[2] = molecular target: T1, PPAR-γ (Homo sapiens, UniProt P37231); test: PPAR-γ activation, GAL4-PPAR-γ-LBD luciferase reporter in BE(2)C cells; format: cell-based; conditions: 20 h treatment, up to 50 μM, FIGS. 1A, 1B
T1 construct: expressed in transfected cells; host or cells: BE(2)C cells
T1 sequence (P37231 238-503 limits assumed): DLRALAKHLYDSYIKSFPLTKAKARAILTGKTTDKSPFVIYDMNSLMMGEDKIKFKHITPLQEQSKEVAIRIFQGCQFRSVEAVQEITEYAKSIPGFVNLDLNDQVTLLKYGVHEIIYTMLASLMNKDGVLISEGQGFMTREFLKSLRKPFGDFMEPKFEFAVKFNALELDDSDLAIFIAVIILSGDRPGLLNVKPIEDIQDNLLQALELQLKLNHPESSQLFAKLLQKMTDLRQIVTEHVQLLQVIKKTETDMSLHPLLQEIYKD
Description: (§1) To examine whether amodiaquine acts as a ligand of […] or PPAR-α, three types of vectors were used.
(§2) The activation of luciferase expression was measured after BE(2)C cells were transformed with a GAL4-PPAR-γ-LBD plasmid or a GAL4-PPAR-α-LBD plasmid, a GAL4-luciferase vector, and a β-galactosidase vector for 6 hours, treated with amodiaquine for 20 hours, and then grown in a 5% CO2 incubator.

[3] = molecular target: T2, PPAR-α (Homo sapiens, UniProt Q07869); test: PPAR-α activation, GAL4-PPAR-α-LBD luciferase reporter in BE(2)C cells; format: cell-based; conditions: 20 h treatment, up to 50 μM, FIGS. 1C, 1D
T2 construct: expressed in transfected cells; host or cells: BE(2)C cells
T2 sequence (Q07869 239-466 limits assumed): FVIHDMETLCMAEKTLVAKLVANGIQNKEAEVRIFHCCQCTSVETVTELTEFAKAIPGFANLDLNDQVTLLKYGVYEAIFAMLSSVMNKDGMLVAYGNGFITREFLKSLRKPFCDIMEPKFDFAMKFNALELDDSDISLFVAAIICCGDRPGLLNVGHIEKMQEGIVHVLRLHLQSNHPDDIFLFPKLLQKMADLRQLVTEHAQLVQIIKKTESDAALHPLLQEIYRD
Description: as §1, §2

[4] = test system: high fat-induced obesity mice; test: Heat production, 4° C. cold test in high fat-induced obesity mice; format: in vivo, mouse; conditions: HFD 14 weeks, up to 6 hours at 4° C.; FIG. 6
Description: To measure the heat production capability of mice fed a high fat diet for 14 weeks among the experimental animals designed in Example 5, a 4° C. cold test was performed (Spiegelman B. M. et al., Cell 92: 829-839, 1998). Hereinafter, the measurement method will be described in detail. A body temperature of mice in the high fat-induced obesity mouse group was measured before being exposed to 4° C., and recorded as an experiment start measurement temperature, and then the mice were exposed in a 4° C. room for up to 6 hours, followed by measurement of body temperature every hour. The body temperature was measured using a rectal thermometer for a mouse (Testo 925, Germany). A heat production measurement value indicated a temperature measured every hour.

[5] = test system: ACOX, CPT-1, and mCAD genes; test: Expression of PPAR-α target genes in liver, muscle and adipose tissues (real-time PCR); format: in vivo, mouse; conditions: muscle, adipose tissues, HFD 14 weeks, FIGS. 9A-9C
Source text: Among the experimental animals designed in Example 5, mice of the high fat-induced obesity mouse groups fed a high fat diet for 14 weeks were sacrificed by cervical spine dislocation, fixed on a dissection stand, and then subjected to dissection with a scalpel to extract liver, muscle, and adipose tissues, and primer base sequences of (β-actin, ACOX, CPT-1, and mCAD are as follows:
After each tissue was disrupted using a grinding instrument, RNA was extracted using TRIzol, and cDNA was synthesized using reverse transcription polymerase chain reaction (RT PCR). […] The ACOX, CPT-1, and mCAD genes were calibrated with β-actin, thereby obtaining resultant values.

[6] = test system: KKAy mice; test: Fasting blood glucose in KKAy mice (amodiaquine); format: in vivo, mouse; conditions: 18 mg/kg oral daily for 6 weeks, control 132.4 mg/dl
Description: (§3) 5-week-old KKAy purchased from Clea Japan was preliminarily raised for one week and then divided into two groups (5 individuals per group). The first group was administered PBS and set as a negative control, and the second group was orally administered amodiaquine at a concentration of 18 mg/kg daily for 6 weeks. […] For measurement of the blood glucose concentration, an intraperitoneal glucose tolerance test (IPGTT) was used.

[7] = test system: high fat-induced obesity mice; test: Fatty liver histology (hematoxylin & eosin) in high fat-induced obesity mice; format: in vivo, mouse; conditions: HFD mice, 14 weeks and 22 weeks; FIGS. 8A and 8B
Source text: Among the experimental animals designed in Example 5, mice in the high fat-induced obesity mouse group fed a high fat diet for 14 weeks with drug administration and high fat-induced obesity mice fed a high fat diet for 7 weeks with drug administration after obesity was induced by a high fat diet for 15 weeks were sacrificed by cervical spine dislocation, fixed on a dissection stand, and subjected to abdominal dissection with a scalpel to extract the liver. The extracted liver tissue was fixed in a 10% formalin solution to prevent contractile deformation. After 24 hours, the fixed tissue was washed with running water, and then general tissue dehydration, clearing, and penetration were performed thereon using an automatic tissue processor (6460B, Sakura, Japan) for 14 hours, and manufacture of paraffin blocks and cooling were performed using an automated embedding device (Tissue-Tex, Japan). The manufactured paraffin blocks were continuously sliced to a thickness of 4 m to 5 m in a vertical direction of the tissue using a rotary microtome 2040 (Japan), and attached to slides after processing using a floating hot water tank and a slide warming table. […]

[8] = test system: KKAy mice; test: Intraperitoneal glucose tolerance test (IPGTT) in KKAy mice; format: in vivo, mouse; conditions: 18 mg/kg oral daily for 6 weeks, 2 g/kg glucose i.p., control 293.2 mg/dl
Description: as §3

[9] = test system: high fat-induced obesity mice; test: Oral glucose tolerance test (OGTT) in high fat-induced obesity mice; format: in vivo, mouse; conditions: HFD mice, 2 g/kg glucose oral; HFD control 180.5 mg/dl; FIG. 7A
Description: After fasting for 16 hours, 2 g/kg of glucose was orally administered to each of the control and experimental group animals, and a blood glucose concentration was measured every 30 minutes for 2 hours. For measurement of the blood glucose concentration, an oral glucose tolerance test (OGTT) was used.

[10] = test system: C2C12 myotube cells; test: Glucose uptake ([3H]2-DOG) in C2C12 myotube cells; format: cell-based, mouse; conditions: 10 μM or 30 μM, 24 h; compared with 50 μM rosiglitazone; FIG. 2
Description: The phosphorylation of insulin receptors occurs due to signal transduction by insulin in muscle, adipose, liver cells, and the like, and accordingly, when various proteins located downstream are phosphorylated, glucose uptake increases, resulting in reduced blood glucose. Thus, a glucose uptake evaluation experiment was carried out to identify whether amodiaquine is effective for diabetes. C2C12 myoblasts, which are muscle cells, were cultured in DMEM containing 10% […]. When the cell density reached about 80% to about 90%, the medium was replaced with fresh 2% horse serum-containing DMEM, and cell differentiation of the C2C12 myoblasts into myotubes was induced to completely differentiate the cells, and then an experiment was carried out. […] Washing was repeated three times every twenty minutes. Subsequently, 1 ml of KRP buffer was injected, a solution (0.2 mM, 0.2 μCi) prepared by dissolving unlabeled 2-DOG and [^3H]2-DOG (Amersham Pharmacia) in KRP buffer was added to the resulting cells at 37° C. to allow treatment for exactly 10 minutes.

[11] = test system: high fat-induced obesity mice; test: Body weight of high fat-induced obesity mice; format: in vivo, mouse; conditions: amodiaquine 20 mg/kg
Description: To measure a decrease in body weight of mice by amodiaquine, 7-week-old male C57BL/6 mice (Charles River Laboratories, Tokyo, Japan) were purchased and raised under certain conditions (temperature: 22±2° C., relative humidity: 55±10%, and light/dark cycle: 12 hours). The mice were grouped into 7 individuals per group, freely fed water and diets in a cage, and then acclimated for 1 week before an experiment.
An average body weight was calculated by dividing the sum of weights of 7 mice per group by the number of mice.

[12] = test system: KKAy mice; test: Glycated hemoglobin (HbA1C) in KKAy mice (amodiaquine); format: in vivo, mouse; conditions: 18 mg/kg oral daily for 6 weeks, FIG. 4
Description: As in Example 3, the first group of experimental animals was administered PBS and set as a control, and the second group was orally administered amodiaquine at a concentration of 18 mg/kg using a 1 ml syringe daily for 6 weeks.

PPAR-γ activity (luciferase expression) [2]: did not exhibit PPAR-γ activity
Structure (SMILES): Cc1cccc(Nc2cc(Cl)nc(SCC(=O)O)n2)c1C [WY-14,643]
blood glucose concentration after 2 hours vs fasting blood glucose (IPITT) [1]: maintained at a lower level than the fasting blood glucose concentration

Structure (SMILES): CCN(CC)Cc1cc(Nc2ccnc3cc(Cl)ccc23)ccc1O [amodiaquine]
PPAR-α activity (luciferase expression) [3]: high PPAR-α activity in a concentration-dependent manner
body temperature on exposure to 4° C. (heat production) [4]: smaller decrease in body temperature than that of the high fat-induced obesity mice
increase in expression amounts of the ACOX, CPT-1, and mCAD genes as compared to the control [5]: ≥ 215 fold
fasting blood glucose concentration [6]: 100.2 mg/dL
liver appearance (fat accumulation, H&E) [7]: almost the same appearance as that of normal mice
blood glucose concentration 2 hours after glucose loading (IPGTT) [8]: 207 mg/dL
blood glucose concentration 2 hours after glucose loading (OGTT) [9]: 139.1 mg/dL
blood glucose concentration after 2 hours vs fasting blood glucose (IPITT) [1]: maintained at a lower level than the fasting blood glucose concentration
time of lowest blood glucose level after insulin (IPITT) [1]: 30 min
glucose uptake [10]: further increased as compared to that in the group treated with rosiglitazone
PPAR-γ activity (luciferase expression) [2]: higher PPAR-γ activity in a concentration-dependent manner than that of the positive control treated with rosiglitazone
body weight vs high fat-induced obesity mice ([11]; HFD with substance administration for 14 weeks, FIG. 5A): significantly lower than that of the high fat-induced obesity mice
body weight vs high fat-induced obesity mice ([11]; substance administration for 7 weeks after obesity induced by HFD for 15 weeks, rosiglitazone 50 mg/kg, FIG. 5C): significant decrease in body weight
glycated hemoglobin production as compared to control mice [12]: approximately 69%

Structure (SMILES): CN(CCOc1ccc(CC2SC(=O)NC2=O)cc1)c1ccccn1 (centres unmarked) [rosiglitazone]
time of lowest blood glucose level after insulin (IPITT) [1]: 60 min
